Assay results taken from patent publication US6410558B1, “Fungicides for the control of take-all disease of plants” (Monsanto Technology LLC, priority 1991, dated 2002).

System: Gaeumannomyces graminis var. tritici (Ggt)
Experiment: In vitro Assay: mycelial growth of Ggt on minimal media agar plates containing test compound
Format: cell-based
Details: dark, 19-20° C., 4 to 5 days, diameter of mycelial growth; for inhibition at 0.1 ppm / inhibition at 1 ppm / inhibition at 10 ppm: Gaeumannomyces graminis; for inhibition at 0.1 ppm / In vitro (ppm) 0.1, Percent Inhibition: 0.1 ppm in minimal media agar; for inhibition at 0.1 ppm: read-out: In vitro (ppm) 0.1, Percent Inhibition; for inhibition at 1 ppm / In vitro (ppm) 1, Percent Inhibition: 1 ppm in minimal media agar; for inhibition at 1 ppm: read-out: In vitro (ppm) 1, Percent Inhibition; for inhibition at 10 ppm / In vitro (ppm) 10, Percent Inhibition: 10 ppm in minimal media agar; for inhibition at 10 ppm: read-out: In vitro (ppm) 10, Percent Inhibition
Outline: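 Ggt mycelial diameter read after 4 to 5 days in darkness at 19-20° C, from three 4-mm plugs placed on Czapek Dox minimal agar containing test compound delivered in acetone. Inhibition expressed as percent versus untreated plates, plug size (4 mm) subtracted from both.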

Structure (SMILES)	inhibition at 0.1 ppm [%]	inhibition at 1 ppm [%]	inhibition at 10 ppm [%]	In vitro (ppm) 0.1, Percent Inhibition	In vitro (ppm) 1, Percent Inhibition	In vitro (ppm) 10, Percent Inhibition [%]
COCCNC(=O)c1c(Cl)cccc1[Si](C)(C)C [Example 146, 2-Chloro-N-(2-methoxyethyl)-6-(trimethylsilyl)benzamide]	14	65	84	–	–	–
C=C(C)CNC(=O)c1c(Cl)cccc1[Si](C)(C)C [Example 147, 2-Chloro-N-(2-methyl-2-propenyl)-6-(trimethylsilyl)benzamide]	< 0	< 0	58	–	–	–
C[Si](C)(C)c1cccc(Cl)c1C(=O)N1CC=CCC1 [Example 148, 1-[2-Chloro-6-(trimethylsilyl)benzoyl]-1,2,3,6-(tetrahydro)pyridine]	–	–	–	N (If the calculation resulted in “0” or less, as compared to the untreated control, a “N” is shown to indicate no control.)	N (If the calculation resulted in “0” or less, as compared to the untreated control, a “N” is shown to indicate no control.)	53
CC1C=CC(C)N1C(=O)c1c(Cl)cccc1[Si](C)(C)C (stereo not drawn) [Example 149, 1-[2-Chloro-6-(trimethylsilyl)benzoyl)-2,5-dihydro-2,5-dimethyl-1H-pyrrole]	< 0	< 0	80	–	–	–
CC(CO)NC(=O)c1c(Cl)cccc1[Si](C)(C)C (stereo not drawn) [Example 154, 2-Chloro-N-(2-hydroxy-1-methylethyl)-6-(trimethylsilyl)benzamide]	< 0	< 0	69	–	–	–
CC(C)c1ccccc1NC(=O)c1c(Cl)cccc1[Si](C)(C)C [Example 156, 2-Chloro-N-[2-(1-methylethyl)phenyl]-6-(trimethylsilyl)benzamide]	9	33	72	–	–	–
C[Si](C)(C)c1cccc(Cl)c1C(=O)Nc1ccccc1C1CCCC1 [Example 158, 2-Chloro-N-(2-cyclopentylphenyl)-6-(trimethylsilyl)benzamide]	2	33	44	–	–	–
CC(NC(=O)c1c(Cl)cccc1[Si](C)(C)C)c1ccccc1 (stereo not drawn) [Example 161, 2-Chloro-N-(1-phenylethyl)-6-(trimethylsilyl)benzamide]	22	17	61	–	–	–
CC(C)CNC(=O)c1c(Cl)cccc1[Si](C)(C)C [Example 162, 2-Chloro-N-(2-methylpropyl)-6-(trimethylsilyl)benzamide]	3	< 0	57	–	–	–
C[Si](C)(C)c1cccc(Cl)c1C(=O)NC1CCC1 [Example 163, 2-Chloro-N-cyclobutyl-6-(trimethylsilyl)benzamide]	24	85	100	–	–	–
CC(C)N(C)C(=O)c1c(Cl)cccc1[Si](C)(C)C [Example 164, 2-Chloro-N-methyl-N-(1-methylethyl)-6-(trimethylsilyl)benzamide]	3	3	70	–	–	–
CC(C)N(O)C(=O)c1c(Cl)cccc1[Si](C)(C)C.[Fe+3].[OH-].[OH-].[OH-] [Example 168, 2-Chloro-N-hydroxy-N-(1-methylethyl)-6-(trimethylsilyl)benzamide, compd. with iron hydroxide (1:1)]	–	–	–	57%	96%	100
CCN=C(SCC)c1c(Cl)cccc1[Si](C)(C)C [Example 169, 2-Chloro-N-ethyl-6-(trimethylsilyl)benzenecarboximidothioic acid, ethyl ester]	< 0	31	100	–	–	–
C[Si](C)(C)c1cccc(Cl)c1C(=O)NC(c1ccccc1)n1nnc2ccccc21 (stereo not drawn) [Example 170, N-(1H-Benzotriazol-1-ylphenylmethyl)-2-chloro-6-(trimethylsilyl)benzamide]	12	9	63	–	–	–
CC(C)NC(=O)NC(=O)c1c(Cl)cccc1[Si](C)(C)C [Example 173, 2-Chloro-N-(isopropylaminocarbonyl)-6-(trimethylsilyl)benzamide]	4	12	92	–	–	–
C[Si](C)(C)c1cccc(Cl)c1NC(=O)C(Cl)(Cl)Cl [Example 175, 2,2,2-Trichloro-N-[2-chloro-6-(trimethylsilyl)phenyl]acetamide]	35	48	60	–	–	–
CCNC(=O)c1c(Br)cccc1[Si](C)(C)C [Example 176, 2-Bromo-N-ethyl-6-(trimethylsilyl)benzamide]	83	97	97	–	–	–
CCNC(=O)c1c([Si](C)(C)C)csc1Cl [Example 177, 2-Chloro-N-ethyl-4-(trimethylsilyl)-3-thiophenecarboxamide]	11	19	100	–	–	–

Structure (SMILES)	inhibition at 0.1 ppm [%]	inhibition at 1 ppm [%]	inhibition at 10 ppm [%]	In vitro (ppm) 0.1, Percent Inhibition	In vitro (ppm) 1, Percent Inhibition	In vitro (ppm) 10, Percent Inhibition [%]
CCNC(=O)n1cccc1[Si](C)(C)C [Example 178, N-Ethyl-2-(trimethylsilyl)-1H-pyrrole-1-carboxamide]	< 0	15	54	–	–	–
CCNC(=O)c1c(Cl)cccc1[Si](C)(C)C1CCCCC1 [Example 181, 2-Chloro-6-(cyclohexyldimethylsilyl)-N-ethylbenzamide]	12	33	58	–	–	–
CCCCCCCC[Si](C)(C)c1cccc(Cl)c1C(=O)NCC [Example 182, 2-Chloro-6-(dimethyloctylsilyl)-N-ethylbenzamide]	30	58	73	–	–	–
CCNC(=O)c1c(Cl)cccc1[Si](C)(C)C1CC2CCC1C2 (stereo not drawn) [Example 183, 2-(Bicyclo[2.2.1]Hept-2-yldimethylsilyl)-6-chloro-N-ethylbenzamide]	24	35	56	–	–	–
CCNC(=O)c1c(Cl)cccc1[Si](C)(C)c1ccccc1 [Example 184, 2-Chloro-6-(dimethylphenylsilyl)-N-ethylbenzamide]	< 0	11	83	–	–	–
CCNC(=O)c1c(Cl)cccc1[Si](C)(C)C(C)(C)C [Example 185, 2-Chloro-6-[(1,1-dimethylethyl)dimethylsilyl]-N-ethylbenzamide]	48	56	72	–	–	–
CCN(C(=O)c1ccccc1C(C)(C)C)C(OC)C(C)(C)C (stereo not drawn) [Example 186, 2-(1,1-Dimethylethyl)-N-ethyl-N-(1-methoxy-2,2-dimethylpropyl)benzamide]	< 0	< 0	67	–	–	–
CCN(C)C(=O)c1c(Cl)cccc1N(C)C(C)(C)C [Example 189, 2-Chloro-6-[(1,1-dimethylethyl)methylamino]-N-ethyl-N-methylbenzamide]	4	13	65	–	–	–
CCNC(=O)c1c(Cl)cccc1N(C)C(C)(C)C [Example 190, 2-Chloro-6-[(1,1-dimethylethyl)methylamino]-N-ethylbenzamide]	24	76	80	–	–	–
CCNC(=O)c1c(Cl)cc(C=O)cc1[Si](C)(C)C [Example 193, 2-Chloro-N-ethyl-4-formyl-6-(trimethylsilyl)benzamide]	35	30	57	–	–	–
CCNC(=O)c1c(F)cccc1[S+]([O-])C(C)(C)C (stereo not drawn) [Example 194, 2-[(1,1-Dimethylethyl)sulfinyl]-N-ethyl-6-fluorobenzamide]	82	100	100	–	–	–
CCN(CC)C(=O)c1c(F)cccc1[S+]([O-])C(C)(C)C (stereo not drawn) [Example 195, N,N-Diethyl 2-[(1,1-dimethylethyl)sulfinyl]-6-fluorobenzamide]	35	29	56	–	–	–
CC(C)NC(=O)c1c(F)cccc1[S+]([O-])C(C)(C)C (stereo not drawn) [Example 196, N-(1-Methylethyl)-2-[(1,1-dimethylethyl)sulfinyl]-6-fluorobenzamide]	3	56	100	–	–	–
CCNC(=O)c1c([Si](C)(C)C)ccc(Cl)c1Cl [Example 203, 2,3-Dichloro-N-ethyl-6-(trimethylsilyl)benzamide]	79	84	91	–	–	–
CN(C)NC(=O)c1c([Si](C)(C)C)ccc(Cl)c1Cl [Example 205, 2,3-Dichloro-6-(trimethylsilyl)benzoic acid, 2,2-dimethylhydrazide]	5	47	81	–	–	–
C#CCNC(=O)c1c(Br)cccc1[Si](C)(C)C [Example 206, 2-Bromo-N-2-propynyl-6-(trimethylsilyl)benzamide]	86	97	100	–	–	–
CCNC(=O)c1c(I)cccc1[Si](C)(C)C [Example 207, N-Ethyl-2-iodo-6-(trimethylsilyl)benzamide]	31	90	97	–	–	–
